pEC50: −log10 of the molar value. Marks after values point to notes of the source that are not given here.

Data set [1] deals with ovariectomized rats. In words: Serum cholesterol analysis in ovariectomized rats. It counts as in vivo, Sprague Dawley rats. As to conditions: for Serum Cholest. % Decrease: daily for 4 days, versus ovariectomized controls. As to the method:
(§1) In the examples illustrating the methods, a postmenopausal model was used in which effects of different treatments upon circulating lipids were determined.
(§2) Seventy-five day old female Sprague Dawley rats (weight range of 200 to 225g) were obtained from Charles River Laboratories (Portage, MI). The animals were either bilaterally ovariectomized (OVX) or exposed to a Sham surgical procedure at Charles River Laboratories, and then shipped after one week. Upon arrival, they were housed in metal hanging cages in groups of 3 or 4 per cage and had ad libitum access to food (calcium content approximately 0.5%) and water for one week. Room temperature was maintained at 22.2° ± 1.7° C with a minimum relative humidity of 40%. The photoperiod in the room was 12 hours light and 12 hours dark.
Dosing Regimen Tissue Collection. After a one week acclimation period (therefore, two weeks post-OVX) daily dosing with test compound was initiated. 17α-ethynyl estradiol or the test compound were given orally, unless otherwise stated, as a suspension in 1% carboxymethylcellulose or dissolved in 20% cyclodextrin. Animals were dosed daily for 4 days. Following the dosing regimen, animals were weighed and anesthetized with a ketamine: xylazine (2:1, V:V) mixture and a blood sample was collected by cardiac puncture. The animals were then sacrificed by asphyxiation with CO2, the uterus was removed through a midline incision, and a wet uterine weight was determined.
Cholesterol Analysis. Blood samples were allowed to clot at room temperature for 2 hours, and serum was obtained following centrifugation for 10 minutes at 3000 rpm. Serum cholesterol was determined using a Boehringer Mannheim Diagnostics high performance cholesterol assay. Briefly the cholesterol was oxidized to cholest-4-en-3-one and hydrogen peroxide. The hydrogen peroxide was then reacted with phenol and 4-aminophenazone in the presence of peroxidase to produce a p-quinone imine dye, which was read spectrophotemetrically at 500 nm. Cholesterol concentration was then calculated against a standard curve.

In data set [2] the test system is MCF-7 breast adenocarcinoma cells. The experiment in a line: MCF-7 Proliferation Assay (tritiated thymidine uptake). It counts as cell-based. As to conditions: Homo sapiens, MCF7; MCF-7 cells, 48 hours with drug, tritiated thymidine pulse 4 hours. As to the method: MCF-7 breast adenocarcinoma cells (ATCC HTB 22) were maintained in MEM (minimal essential medium, phenol red-free, Sigma, St. Louis, MO) supplimented with 10% fetal bovine serum (FBS) (V/V), L-glutamine (2 mM), sodium pyruvate (1 mM), HEPES {(N-[2-hydroxyethyl]piperazine-N'-[2-ethanesulfonic acid]10 mM}, non-essential amino acids and bovine insulin (1 µg/mL) (maintenance medium). Ten days prior to assay, MCF-7 cells were switched to maintenance medium supplemented with 10% dextran coated charcoal stripped fetal bovine serum (DCC-FBS) assay medium) in place of 10% FBS to deplete internal stores of steroids. MCF-7 cells were removed from maintenance flasks using cell dissociation medium (Ca++/Mg++ free HBSS (phenol red-free) supplemented with 10 mM HEPES and 2 mM EDTA). Cells were washed twice with assay medium and adjusted to 80,000 cells/mL. Approximately […] (8,000 cells) were added to flat-bottom microculture wells (Costar 3596) and incubated at 37° C in a 5% CO2 humidified incubator for 48 hours to allow for cell adherence and equilibration after transfer. Serial dilutions of drugs or DMSO as a diluent control were prepared in assay medium and […] to triplicate microcultures […]. […] Samples were counted by liquid scintillation using a Wallace BetaPlace β counter.

Data set [3] deals with ovariectomized rats. Set-up: species or system Sprague Dawley rats. Particulars: rat, in vivo, po, 0.1 mg/kg/day. As to the method:
as §1, §2
Dosing Regimen Tissue Collection. After a one week acclimation period (therefore, two weeks post-OVX) daily dosing with test compound was initiated. 17α-ethynyl estradiol or the test compound were given orally, unless otherwise stated, as a suspension in 1% carboxymethylcellulose or dissolved in 20% cyclodextrin. Animals were dosed daily for 4 days. […] The animals were then sacrificed by asphyxiation with CO2, the uterus was removed through a midline incision, and a wet uterine weight was determined.

Another data set has as its system Eosinophil peroxidase. On the set-up: species or system Sprague Dawley rats. Particulars: rat, in vivo.
Source text: as §2
Dosing Regimen Tissue Collection. After a one week acclimation period (therefore, two weeks post-OVX) daily dosing with test compound was initiated. […] The animals were then sacrificed by asphyxiation with CO2, the uterus was removed through a midline incision, and a wet uterine weight was determined.
Uterine Eosinophil Peroxidase (EPO) Assay. […] Upon addition of 0.01% hydrogen peroxide and 10 mM O-phenylenediamine (final concentrations) in Tris buffer, increase in absorbance was monitored for one minute at 450 nm. […] The maximal velocity of a 15 second interval was determined over the initial, linear portion of the reaction curve.

By pEC50 is commonly meant the EC50 on a negative log10 scale, so that one unit is a factor of ten. Higher therefore signals a small EC50. Consider `Oc1ccc2c(c1)S[C@H]1c3ccccc3[C@@H](c3ccc(OCCN4CCCCC4)cc3)[C@@H]21` [Example 3], for which the “Serum Cholest. % Decrease” value is given as 12.0% in the data set on ovariectomized rats [1] (0.1 mg/kg PO), 35.7* % in the data set on ovariectomized rats [1] (1 mg/kg PO) and 65.0* % in the data set with ovariectomized rats [1] (10 mg/kg PO). In data set [2], the pEC50 is 7.00.

For the compound `C#C[C@]1(O)CC[C@H]2[C@@H]3CCc4cc(O)ccc4[C@H]3CC[C@@]21C` [EE2, 17α-ethynyl estradiol, reference compound], the “uterine weight (result in words)” value in the data set on ovariectomized rats [3] is recorded as “substantially greater than the uterine weight of ovariectomized test animals”. For the same compound, the “Serum Cholest. % Decrease” value in the data set with ovariectomized rats [1] (0.1 mg/kg PO) is 95.2* %. For the same compound, the “serum cholesterol (result in words)” value in the data set with ovariectomized rats [1] (compared to ovariectomized control animals, EE2 orally at 0.1 mg/kg/day) is on record as “caused a decrease in serum cholesterol”. Besides, in the data set on Eosinophil peroxidase, the “Uterine Eosinophil (Vmax)” value was 357.3* and the “eosinophil infiltration into the uterus (result in words)” value is recorded as “substantial, expected increase in eosinophil infiltration”.

(Values after EP0832891B1, “Dihydrobenzo (B) indeno (2,1-D) thiophene compounds, intermediates, processes, compositions, and methods” (ELI LILLY AND COMPANY, priority 1996, dated 1998).)
